This note sets out measurements from patent US12630498B2 (Genzyme Corporation, priority 2019, dated 2026).

One may read the EC50 as the midpoint of the concentration-response curve. A word on the Emax: it is the size of the effect at its maximum, as opposed to the concentration needed.

For test [1], the target named is T1, human Cystic Fibrosis Transmembrane Conductance Regulator (CFTR) harboring the ΔF508 mutation (Homo sapiens, UniProt P13569, DEL508-508).
T1 construct: expressed in transfected cells; host or cells: H441 carcinoma line (G418-selected)
T1 sequence (P13569 with tags, fused parts or gaps DEL508-508): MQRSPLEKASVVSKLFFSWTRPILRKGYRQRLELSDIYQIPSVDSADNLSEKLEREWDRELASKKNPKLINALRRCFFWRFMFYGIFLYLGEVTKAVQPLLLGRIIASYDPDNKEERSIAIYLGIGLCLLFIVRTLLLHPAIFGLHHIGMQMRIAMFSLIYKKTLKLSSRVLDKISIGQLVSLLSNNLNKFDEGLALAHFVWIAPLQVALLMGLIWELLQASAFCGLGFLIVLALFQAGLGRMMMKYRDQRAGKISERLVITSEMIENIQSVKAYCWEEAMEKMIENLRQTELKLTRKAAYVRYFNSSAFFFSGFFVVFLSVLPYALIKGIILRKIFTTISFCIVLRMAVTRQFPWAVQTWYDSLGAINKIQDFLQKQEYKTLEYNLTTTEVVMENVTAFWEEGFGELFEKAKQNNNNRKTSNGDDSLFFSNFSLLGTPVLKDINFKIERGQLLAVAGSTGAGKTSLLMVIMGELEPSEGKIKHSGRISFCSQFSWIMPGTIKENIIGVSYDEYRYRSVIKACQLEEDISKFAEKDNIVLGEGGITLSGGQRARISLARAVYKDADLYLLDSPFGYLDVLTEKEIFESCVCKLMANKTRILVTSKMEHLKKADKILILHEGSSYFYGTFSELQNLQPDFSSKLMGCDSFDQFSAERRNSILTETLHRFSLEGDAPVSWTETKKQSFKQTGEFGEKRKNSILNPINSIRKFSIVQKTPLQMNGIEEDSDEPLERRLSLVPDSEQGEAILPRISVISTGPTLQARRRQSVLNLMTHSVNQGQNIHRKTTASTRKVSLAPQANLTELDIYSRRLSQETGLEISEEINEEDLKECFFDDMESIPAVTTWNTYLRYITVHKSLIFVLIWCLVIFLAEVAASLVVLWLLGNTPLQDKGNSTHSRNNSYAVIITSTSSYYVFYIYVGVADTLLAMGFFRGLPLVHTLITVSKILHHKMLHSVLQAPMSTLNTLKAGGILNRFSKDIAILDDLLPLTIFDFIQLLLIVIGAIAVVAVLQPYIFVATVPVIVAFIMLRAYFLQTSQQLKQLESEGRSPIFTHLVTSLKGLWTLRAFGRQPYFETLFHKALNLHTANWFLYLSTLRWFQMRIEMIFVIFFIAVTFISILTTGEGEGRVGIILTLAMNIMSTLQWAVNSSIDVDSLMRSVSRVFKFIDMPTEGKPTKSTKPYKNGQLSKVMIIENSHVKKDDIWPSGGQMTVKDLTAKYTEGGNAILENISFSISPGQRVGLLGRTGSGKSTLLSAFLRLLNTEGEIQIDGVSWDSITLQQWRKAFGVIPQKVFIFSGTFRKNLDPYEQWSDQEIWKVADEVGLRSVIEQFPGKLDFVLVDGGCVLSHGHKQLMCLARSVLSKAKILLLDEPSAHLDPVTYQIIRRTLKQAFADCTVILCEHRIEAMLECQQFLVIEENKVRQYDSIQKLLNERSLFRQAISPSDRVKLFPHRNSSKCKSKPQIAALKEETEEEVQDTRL
As to the kind of experiment: H441 cell ΔF508-CFTR-HRP cell surface assay (Emax and EC50). The test is classed as cell-based. Conditions: for Emax: NCI-H441, NA = Not active. Put shortly:
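H441 and 41o- bronchial epithelial cells expressing ΔF508-CFTR with an extracellular-loop-4 HRP tag were treated with a 15-point compound series (24.5–0.001 μM) for two nights, H441 at 27° C, 41o- at 37° C with 0.0005 mg/ml doxycycline. Surface HRP luminescence read; % of maximum VX809 signal and EC50 derived.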

Test [2] concerns the target T2, CFTR-mediated transepithelial chloride transport in primary human bronchial epithelial cells from a ΔF508 homozygous CF donor (Homo sapiens, UniProt P13569, DEL508-508).
T2 construct: Primary human bronchial epithelial cells from a ΔF508 homozygous CF donor; host or cells: primary CF-HBE cells, ΔF508 homozygous donor
As to the kind of experiment: TECC24 recording of CFTR-mediated transepithelial chloride transport in CF-HBE cells (AUC fold over DMSO). To be noted: test agent 10 μM, 48 hours incubation, AUC of forskolin-stimulated IEQ relative to DMSO. The format is cell-based. The gist of the method: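 Equivalent Cl⁻ current was derived from transepithelial voltage and resistance, and its AUC from forskolin (10 μM) to CFTRinh-172 (20 μM) was divided by the DMSO AUC. Benzamil 10 μM blocked ENaC. Cells were ΔF508-homozygous primary bronchial epithelia pretreated 48 h at 36.5 °C in IL-13 medium.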

Each structure is given as a SMILES string.

T2 sequence (P13569 with tags, fused parts or gaps DEL508-508): as above

On to `CC(C)(C)[C@H](NC(=O)c1ccc2ccccc2c1OCc1ccc(Cl)c(Cl)c1)C(=O)O` [Example 47, (S)-2-(1-((3,4-dichlorobenzyl)oxy)-2-naphthamido)-3,3-dimethylbutanoic Acid], for which, in test [1], the EC50 is 900 nM and the Emax amounted to 117%. The “TECC24 AUC fold over DMSO @10 μM” value in test [2] is “C (“C” refers to AUC @10 uM <4)”.
The like results for `CC(C)(C)[C@H](NC(=O)c1ccc2ccccc2c1OCc1ccc(C(F)(F)F)c(F)c1)C(=O)O` [Example 25, (S)-2-(1-((3-fluoro-4-(trifluoromethyl)benzyl)oxy)-2-naphthamido)-3,3-dimethylbutanoic Acid] were, in that order, 500 nM, 287% and “C (“C” refers to AUC @10 uM <4)”.
As to `CC(C)(C)[C@H](NC(=O)c1ccc2ccc(Br)cc2c1OCc1ccc(OC(F)(F)F)cc1)C(=O)O` [Example 247, (2S)-2-[[7-bromo-1-[[4-(trifluoromethoxy)phenyl]methoxy]naphthalene-2-carbonyl]amino]-3,3-dimethyl-butanoic Acid], in test [1], the EC50 worked out at 100 nM and the Emax is 224%. For the same molecule, the “TECC24 AUC fold over DMSO @10 μM” value in test [2] is on record as “A (“A” refers to AUC @10 uM >6)”.
The like results for `CC(C)(C)[C@@H](NC(=O)c1ccc2ccc(C(F)(F)F)cc2c1OCc1ccc(OC(F)(F)F)cc1)C(=O)O` [Example 287, (R)-3,3-dimethyl-2-(1-((4-(trifluoromethoxy)benzyl)oxy)-7-(trifluoromethyl)-2-naphthamido)butanoic Acid] were, in that order, 300 nM, 57.1% and “C (“C” refers to AUC @10 uM <4)”.
Taken in the same sequence, the figures for `CC(C)(C)[C@H](NC(=O)c1ccc2ccccc2c1OCc1ccc(C#N)cc1)C(=O)O` [Example 31, (S)-2-(1-((4-cyanobenzyl)oxy)-2-naphthamido)-3,3-dimethylbutanoic Acid] were 8000 nM, 77.1% and “C (“C” refers to AUC @10 uM <4)”.
Taken in the same sequence, the figures for `CC(C)(C)C[C@H](NC(=O)c1ccc2ccccc2c1OC[C@H]1CC[C@H](C(F)(F)F)CC1)C(=O)O` [Example 179, (S)-4,4-dimethyl-2-(1-(((1r,4S)-4-(trifluoromethyl)cyclohexyl)methoxy)-2-naphthamido)pentanoic Acid] were 3400 nM, 103% and “C (“C” refers to AUC @10 uM <4)”.
In test [1], `CC(C)(C)[C@H](NC(=O)c1ccc2ccc(C(F)F)cc2c1OCc1ccc(C(F)(F)F)cc1)C(=O)O` [Example 244, (2S)-2-[[7-(difluoromethyl)-1-[[4-(trifluoromethyl)phenyl]methoxy]naphthalene-2-carbonyl]amino]-3,3-dimethyl-butanoic Acid] displayed an EC50 of 100 nM and an Emax of 365%. In addition, the “TECC24 AUC fold over DMSO @10 μM” value in test [2] is reported as “A (“A” refers to AUC @10 uM >6)”.
The like results for `CC(C)(C)[C@H](NC(=O)c1ccc2c(F)cccc2c1OCc1ccc(C(F)(F)F)cc1)C(=O)O` [Example 236, (2S)-2-[[5-fluoro-1-[[4-(trifluoromethyl)phenyl]methoxy]naphthalene-2-carbonyl]amino]-3,3-dimethyl-butanoic Acid] were, in that order, 1000 nM, 130% and “B (“B” refers to AUC @10 uM between 4-6)”.
The like results for `CC1([C@H](NC(=O)c2ccc3ccc(Cl)cc3c2OCc2ccc(C(F)(F)F)cc2)C(=O)O)CCCC1` [Example 302, (S)-2-(7-chloro-1-((4-(trifluoromethyl)benzyl)oxy)-2-naphthamido)-2-(1-methylcyclopentyl)acetic Acid] were, in that order, 100 nM, 248% and “A (“A” refers to AUC @10 uM >6)”.
The like results for `CC(C)(SC1CCCC1)[C@H](NC(=O)c1ccc2ccccc2c1OCc1ccc(C(F)(F)F)cc1)C(=O)O` [Example 168, (R)-3-(cyclopentylthio)-3-methyl-2-(1-((4-(trifluoromethyl)benzyl)oxy)-2-naphthamido)butanoic Acid] were, in that order, 800 nM, 157% and “B (“B” refers to AUC @10 uM between 4-6)”.
In test [1], `CC1(C(NC(=O)c2ccc3ccccc3c2OCc2ccc(C(F)(F)F)cc2)C(=O)O)CCCCC1` (stereo not drawn) [Example 80, 2-(1-methylcyclohexyl)-2-(1-((4-(trifluoromethyl)benzyl)oxy)-2-naphthamido)acetic Acid] registered a concentration giving a half-maximal response (EC50) of 400 nM and an Emax of 195%. For the same molecule, the “TECC24 AUC fold over DMSO @10 μM” value in test [2] is recorded as “C (“C” refers to AUC @10 uM <4)”.
Taken in the same sequence, the figures for `CC1(C(NC(=O)c2ccc3ccccc3c2OCc2ccc(C(F)(F)F)cc2)C(=O)O)CC1` (stereo not drawn) [Example 56, 2-(1-methylcyclopropyl)-2-(1-((4-(trifluoromethyl)benzyl)oxy)-2-naphthamido)acetic Acid] were 1700 nM, 127% and “C (“C” refers to AUC @10 uM <4)”.
Taken in the same sequence, the figures for `CC(C)(SC1CC2CCC1C2)[C@H](NC(=O)c1ccc2ccccc2c1OCC1CCCCC1)C(=O)O` (stereo partly drawn) [Example 175] were 3000 nM, 152% and “C (“C” refers to AUC @10 uM <4)”.
The like results for `CCC(C)(C)[C@H](NC(=O)c1ccc2ccc(C(F)F)cc2c1OCc1ccc(C(F)(F)F)cc1)C(=O)O` [Example 242, (2S)-2-[[7-(difluoromethyl)-1-[[4-(trifluoromethyl)phenyl]methoxy]naphthalene-2-carbonyl]amino]-3,3-dimethyl-pentanoic Acid] were, in that order, 100 nM, 368% and “A (“A” refers to AUC @10 uM >6)”.
For the molecule `CC(C)(C)[C@H](NC(=O)c1ccc2cc(F)ccc2c1OCc1ccc(S(F)(F)(F)(F)F)cc1)C(=O)O` [Example 81, (S)-2-(6-fluoro-1-((4-(pentafluoro-16-sulfanyl)benzyl)oxy)-2-naphthamido)-3,3-dimethylbutanoic Acid], in test [1], the EC50 worked out at 700 nM and the Emax was 91.9%. For the same molecule, the “TECC24 AUC fold over DMSO @10 μM” value in test [2] is listed as “A (“A” refers to AUC @10 uM >6)”.
The like results for `CCC(C)(C)[C@H](NC(=O)c1ccc2ccccc2c1OCc1ccc(C(F)(F)F)cc1)C(=O)O` [Example 78, (S)-3,3-dimethyl-2-(1-((4-(trifluoromethyl)benzyl)oxy)-2-naphthamido)pentanoic Acid] were, in that order, 400 nM, 242% and “A (“A” refers to AUC @10 uM >6)”.
Taken in the same sequence, the figures for `O=C(N[C@@H](CCc1ccccc1)C(=O)O)c1ccc2ccccc2c1OCc1ccc(C(F)(F)F)cc1` [Example 88, (S)-4-phenyl-2-(1-((4-(trifluoromethyl)benzyl)oxy)-2-naphthamido)butanoic Acid] were 7300 nM, 64.4% and “C (“C” refers to AUC @10 uM <4)”.
In test [1], `CC1([C@H](NC(=O)c2ccc3ccc(C(F)(F)F)cc3c2OCc2ccc(OC(F)(F)F)cc2)C(=O)O)CC1` [Example 297, (S)-2-(1-methylcyclopropyl)-2-(1-((4-(trifluoromethoxy)benzyl)oxy)-7-(trifluoromethyl)-2-naphthamido)acetic Acid] had an EC50 of 500 nM and an Emax of 137%. Moreover, in test [2], the “TECC24 AUC fold over DMSO @10 μM” value was “A (“A” refers to AUC @10 uM >6)”.
Taken in the same sequence, the figures for `Cc1cc(F)c2ccc(C(=O)N[C@H](C(=O)O)C(C)(C)C)c(OCc3ccc(C(F)(F)F)cc3)c2c1` [Example 263, (2S)-2-[[5-fluoro-7-methyl-1-[[4-(trifluoromethyl)phenyl]methoxy]naphthalene-2-carbonyl]amino]-3,3-dimethyl-butanoic Acid] were 100 nM, 250% and “A (“A” refers to AUC @10 uM >6)”.
In test [1], `CC(C)(C)C[C@H](NC(=O)c1ccc2ccccc2c1OCc1nc2ccccc2s1)C(=O)O` [Example 214, (S)-2-(1-(benzo[d]thiazol-2-ylmethoxy)-2-naphthamido)-4,4-dimethylpentanoic Acid] had an EC50 of 3400 nM and an Emax of 112%. Also, the “TECC24 AUC fold over DMSO @10 μM” value in test [2] is reported as “C (“C” refers to AUC @10 uM <4)”.
The like results for `CC1(C(NC(=O)c2ccc3ccccc3c2OCc2ccc(S(F)(F)(F)(F)F)cc2)C(=O)O)CCCCC1` (stereo not drawn) [Example 48, 2-(1-methylcyclohexyl)-2-(1-((4-(pentafluoro-16-sulfanyl)benzyl)oxy)-2-naphthamido)acetic Acid] were, in that order, 700 nM, 112% and “C (“C” refers to AUC @10 uM <4)”.
Taken in the same sequence, the figures for `CC(C)Oc1ccc2c(OCc3ccc(C(F)(F)F)cc3)c(C(=O)N[C@H](C(=O)O)C(C)(C)C)ccc2c1` [Example 260, (2S)-2-[[6-isopropoxy-1-[[4-(trifluoromethyl)phenyl]methoxy]naphthalene-2-carbonyl]amino]-3,3-dimethyl-butanoic Acid] were 1500 nM, 70.2% and “C (“C” refers to AUC @10 uM <4)”.
